The results in this text go back to patent US7282519B2 (priority 2003, dated 2007).

Read-outs that look alike come from different tables or passages of the source.

For data set [1], the system named is Normal Rat. The data set is described as follows: Measurement of urine excretion using a nitrosated diuretic compound, intravenous. Format: in vivo, Male Wistar rats. Conditions: for Total Urine Volume (ml) at: 0.5 h / Total Urine Volume (ml) at: 1 h / Total Urine Volume (ml) at: 2 h: normal rat, intravenous slow bolus, 3 mg/kg (Example 12: 3 mg/kg equivalent), n = 6.

Data set [2] concerns Normal Rat. Format: in vivo, Male Wistar rats. Conditions: intravenous slow bolus, 1 mg/kg (each compound), n = 3.

Compound `NS(=O)(=O)c1cc(C(=O)OCC(=O)NCCO[N+](=O)[O-])c(NCc2ccco2)cc1Cl` had a melting point of 135 °C. The same measure, in the same setting: the value for `C[C@@H](CNC(=O)COC(=O)c1cc(S(N)(=O)=O)c(Cl)cc1NCc1ccco1)O[N+](=O)[O-]` was 125 to 138 °C (dec.); that for `NS(=O)(=O)c1cc(C(=O)NCCOC(=O)[C@@H]2CCCN2[15N]=O)c(NCc2ccco2)cc1Cl` was 51 to 61 °C; that for `NS(=O)(=O)c1cc(C(=O)OC[C@H]2CCCN2N=O)c(NCc2ccco2)cc1Cl` was 79 to 81 °C.

`CN(CCO[N+](=O)[O-])C(=O)COC(=O)c1cc(S(N)(=O)=O)c(Cl)cc1NCc1ccco1`: the melting point lay in the range of 70 to 72 °C. The same measure, in the same setting: under `NS(=O)(=O)c1cc(C(=O)OCC(=O)N2CCC(CO[N+](=O)[O-])CC2)c(NCc2ccco2)cc1Cl` stands 115 to 117 °C. In turn, `NS(=O)(=O)c1cc(C(=O)OCC(=O)N2CCC(CCO[N+](=O)[O-])CC2)c(NCc2ccco2)cc1Cl` displayed a melting point of 170 °C. The same measure, in the same setting: the value for `CCN(CCO[N+](=O)[O-])C(=O)COC(=O)c1cc(S(N)(=O)=O)c(Cl)cc1NCc1ccco1` was 60 to 62 °C; that for `NS(=O)(=O)c1cc(C(=O)OCC(=O)N[C@@H](CCO[N+](=O)[O-])CO[N+](=O)[O-])c(NCc2ccco2)cc1Cl` was 115 to 118 °C. Still for that read-out and setting: the value for `NS(=O)(=O)c1cc(C(=O)OCC(=O)N2CCC[C@@H]2CO[N+](=O)[O-])c(NCc2ccco2)cc1Cl` was 64 to 66 °C. As for `NS(=O)(=O)c1cc(C(=O)OCC(=O)NC[C@H](CO[N+](=O)[O-])O[N+](=O)[O-])c(NCc2ccco2)cc1Cl` [Example 12, (N-((2R)-2,3-Bis(nitrooxy)propyl)carbamoyl)methyl4-chloro-2-((2-furylmethyl)amino)-5-sulfamoylbenzoate], the melting point is 143 to 153 °C (dec.). Besides, in the data set on Normal Rat [1], the “Total Urine Volume (ml) at: 0.5 h” value worked out at 4.2 ± 0.4 mL, the “Total Urine Volume (ml) at: 1 h” value was 5.3 ± 0.5 mL and the “Total Urine Volume (ml) at: 2 h” value was 6.2 ± 0.5 mL. Besides, in the data set with Normal Rat [1] (rat, intravenous, 3 mg/kg equivalent), the “Diuresis in the rat” value was “elicits diuresis”. As to `NS(=O)(=O)c1cc(C(=O)O)c(NCc2ccco2)cc1Cl` [Furosemide, furosemide, reference compound], the “Total Urine Volume (ml) at: 1 h” value with Normal Rat [2] (1 h, mean ± spread) amounted to 3.3 ± 1.7 mL; in the data set with Normal Rat [1], 8.8 ± 1.2 mL. Further, the figures for the “Total Urine Volume (ml) at: 2 h” value in the data set on Normal Rat [2] (2 h) and in the data set with Normal Rat [1] were 3.3 ± 1.7 mL and 11.0 ± 1.3 mL, respectively. The “Total Urine Volume (ml) at: 3 h” value in the data set on Normal Rat [2] (3 h) worked out at 5.0 ± 0.6 mL. Also, in the data set with Normal Rat [1], the “Total Urine Volume (ml) at: 0.5 h” value was determined as 6.7 ± 1.2 mL.

The term melting point denotes the temperature, or range, at which the solid turns liquid.
